The values below come from patent US20210299022A1, “COMPOSITION FOR THE TREATMENT OF NAIL FUNGUS” (Oystershell NV, priority 2020, published 2021).

SMILES strings stand for the structures.

A short description of data set [1]: tolerance of fluorescent whitening agent upon nails. The data set is classed as in vivo. To be noted: applied upon nails. From the text:
In a preferred embodiment, the composition according to the invention includes 2,5-bis(5-tert-butyl-benzoxazol-2-yl)thiophene as fluorescent whitening agent. 2,5-bis(5-tert-butyl-benzoxazol-2-yl)thiophene is known as FWA-184 and has CAS No: [7128-64-5].

The nature of data set [2]: stability of optical brightener in the composition. To be noted: in composition of example 1. The data set is classed as physicochemical. From the text: FWA-184, also known as OB-184 or 2,5′-Bis[2-(5-tert-buty 1-2 benzoxazoly)thiophene is an optical brightener known for polymers, paints and detergents. It's suitable for use in polymers which come into contact with keratinous tissue and skin. Furthermore, it is stable in the present composition. […] It is important that the film-forming polymer is transparent to both visible ranges as well as the wavelengths which are absorbed by the fluorescent whitening agent.

With `CC(C)(C)c1ccc2oc(-c3ccc(-c4nc5cc(C(C)(C)C)ccc5o4)s3)nc2c1` [FWA-184, 2,5-bis(5-tert-butyl-benzoxazol-2-yl)thiophene], the tolerance upon nails entry in data set [1] is “well tolerated”. In addition, in data set [2], the “stability in the present composition” value is given as “stable”.
